In patent publication US20260373101A1, “POLYAMINATED FATTY ACIDS FOR USE AS POTENTIATORS OF ANTIBACTERIAL ACTIVITY” (priority 2023, published 2026):

These compounds were tested on E. coli AG-100A (assay: Potentiation of known antibiotics (MIC of antibiotic alone or with PAFA)). Details: Escherichia coli, AG100A, 24 h, Antibiotic alone.
Assay type: cell-based
Description: (§1) 100 μl of a liquid culture medium is deposited in each well of a 96-well microplate, and then inoculated with the bacterial suspension of example 2.1 prepared for the positive control. The volume needed to inoculate is calculated for an OD of 0.01 which corresponds to approximately 5,106 bacteria in each well. In this plate, the first row corresponds to a negative control (200 μl of sterile culture medium in each well), the second row to a positive control (100 μl of sterile culture medium with 100 μl of the bacterial suspension), the third row contains 192 μl of culture medium and 8 μl of an antibiotic solution (10 mg/ml) to be tested in each well. Subsequently, a cascade dilution is performed from this line. Next, 10 μl of a fatty acid solution (10 μM final concentration) is added to each well of the lines. Then, 90 μl of bacterial suspension is added to lines 3 to 8. The MIC of the antibiotic tested is determined after 24 hours of incubation at 37 °C in a humid atmosphere.
(§2) The table 3 below reports the antibacterial activity (MIC in μg/mL) of a combination of some polyaminated fatty acids prepared in example 1 with various antibacterial drugs: doxycycline (DOX), tetracycline (TET), oxytetracycline (OXY) and minocycline (MINO), against various bacterial strains of P. aeruginosa (PA01, PA0509, and PA263), and of E. coli (AG-100 and AG-100A).

SMILES | MIC [µg/mL]
CN(C)c1ccc(O)c2c1C[C@H]1C[C@H]3[C@H](N(C)C)C(O)=C(C(N)=O)C(=O)[C@@]3(O)C(O)=C1C2=O [MINO, minocycline] | 0.25

Same assay, conditions: Escherichia coli, AG100A, 24 h, MIC of antibiotic, +PAFA10 (10 μM)

SMILES | MIC [µg/mL]
CN(C)c1ccc(O)c2c1C[C@H]1C[C@H]3[C@H](N(C)C)C(O)=C(C(N)=O)C(=O)[C@@]3(O)C(O)=C1C2=O [MINO, minocycline] | 0.25

Same assay, conditions: Escherichia coli, AG100A, 24 h, MIC of antibiotic, +PAFA11 (10 μM)

SMILES | MIC [µg/mL]
CN(C)c1ccc(O)c2c1C[C@H]1C[C@H]3[C@H](N(C)C)C(O)=C(C(N)=O)C(=O)[C@@]3(O)C(O)=C1C2=O [MINO, minocycline] | 0.25

Same assay, conditions: Escherichia coli, AG100A, 24 h, MIC of antibiotic, +PAFA14 (10 μM)

SMILES | MIC [µg/mL]
CN(C)c1ccc(O)c2c1C[C@H]1C[C@H]3[C@H](N(C)C)C(O)=C(C(N)=O)C(=O)[C@@]3(O)C(O)=C1C2=O [MINO, minocycline] | 0.004

These compounds were tested on E. coli AG-100 in the same assay as above. Details: Escherichia coli, AG100, 24 h, AG-100, Antibiotic alone.
Assay type: cell-based
Description: as §1, §2

SMILES | MIC [µg/mL]
CN(C)c1ccc(O)c2c1C[C@H]1C[C@H]3[C@H](N(C)C)C(O)=C(C(N)=O)C(=O)[C@@]3(O)C(O)=C1C2=O [MINO, minocycline] | 1

Same assay, conditions: Escherichia coli, AG100, 24 h, MIC of antibiotic, AG-100, +PAFA10 (10 μM)

SMILES | MIC [µg/mL]
CN(C)c1ccc(O)c2c1C[C@H]1C[C@H]3[C@H](N(C)C)C(O)=C(C(N)=O)C(=O)[C@@]3(O)C(O)=C1C2=O [MINO, minocycline] | 0.13

Same assay, conditions: Escherichia coli, AG100, 24 h, MIC of antibiotic, AG-100, +PAFA11 (10 μM)

SMILES | MIC [µg/mL]
CN(C)c1ccc(O)c2c1C[C@H]1C[C@H]3[C@H](N(C)C)C(O)=C(C(N)=O)C(=O)[C@@]3(O)C(O)=C1C2=O [MINO, minocycline] | 0.13

Same assay, conditions: Escherichia coli, AG100, 24 h, MIC of antibiotic, AG-100, +PAFA14 (10 μM)

SMILES | MIC [µg/mL]
CN(C)c1ccc(O)c2c1C[C@H]1C[C@H]3[C@H](N(C)C)C(O)=C(C(N)=O)C(=O)[C@@]3(O)C(O)=C1C2=O [MINO, minocycline] | 0.004

These compounds were tested on P. aeruginosa PA01 in the same assay as above. Details: Pseudomonas aeruginosa, PA01, 24 h, MIC of antibiotic, PA01, +PAFA10 (10 μM).
Assay type: cell-based
Description: as §1, §2

SMILES | MIC [µg/mL]
CN(C)c1ccc(O)c2c1C[C@H]1C[C@H]3[C@H](N(C)C)C(O)=C(C(N)=O)C(=O)[C@@]3(O)C(O)=C1C2=O [MINO, minocycline] | 2

Same assay, conditions: Pseudomonas aeruginosa, PA01, 24 h, MIC of antibiotic, PA01, +PAFA11 (10 μM)

SMILES | MIC [µg/mL]
CN(C)c1ccc(O)c2c1C[C@H]1C[C@H]3[C@H](N(C)C)C(O)=C(C(N)=O)C(=O)[C@@]3(O)C(O)=C1C2=O [MINO, minocycline] | 4

Same assay, conditions: Pseudomonas aeruginosa, PA01, 24 h, MIC of antibiotic, PA01, +PAFA14 (10 μM)

SMILES | MIC [µg/mL]
CN(C)c1ccc(O)c2c1C[C@H]1C[C@H]3[C@H](N(C)C)C(O)=C(C(N)=O)C(=O)[C@@]3(O)C(O)=C1C2=O [MINO, minocycline] | 0.5

Same assay, conditions: Pseudomonas aeruginosa, PA01, 24 h, PA01, Antibiotic alone

SMILES | MIC [µg/mL]
CN(C)c1ccc(O)c2c1C[C@H]1C[C@H]3[C@H](N(C)C)C(O)=C(C(N)=O)C(=O)[C@@]3(O)C(O)=C1C2=O [MINO, minocycline] | 16

What follows are compounds tested on P. aeruginosa PA0509 in the same assay as above. Details: Pseudomonas aeruginosa, PA0509, 24 h.
Assay type: cell-based
Description: as §1, §2

SMILES | MIC [µg/mL]
CN(C)c1ccc(O)c2c1C[C@H]1C[C@H]3[C@H](N(C)C)C(O)=C(C(N)=O)C(=O)[C@@]3(O)C(O)=C1C2=O [MINO, minocycline] | 1

Same assay, conditions: Pseudomonas aeruginosa, PA0509, 24 h, MIC of antibiotic, PA0509, +PAFA10 (10 μM), 24 h

SMILES | MIC [µg/mL]
CN(C)c1ccc(O)c2c1C[C@H]1C[C@H]3[C@H](N(C)C)C(O)=C(C(N)=O)C(=O)[C@@]3(O)C(O)=C1C2=O [MINO, minocycline] | 0.5

Same assay, conditions: Pseudomonas aeruginosa, PA0509, 24 h, MIC of antibiotic, PA0509, +PAFA11 (10 μM), 24 h

SMILES | MIC [µg/mL]
CN(C)c1ccc(O)c2c1C[C@H]1C[C@H]3[C@H](N(C)C)C(O)=C(C(N)=O)C(=O)[C@@]3(O)C(O)=C1C2=O [MINO, minocycline] | 0.5

Same assay, conditions: Pseudomonas aeruginosa, PA0509, 24 h, MIC of antibiotic, PA0509, +PAFA14 (10 μM), 24 h

SMILES | MIC [µg/mL]
CN(C)c1ccc(O)c2c1C[C@H]1C[C@H]3[C@H](N(C)C)C(O)=C(C(N)=O)C(=O)[C@@]3(O)C(O)=C1C2=O [MINO, minocycline] | 0.063

What follows are compounds tested on P. aeruginosa PA263 in the same assay as above. Details: PA263, +PAFA11 (10 μM).
Assay type: cell-based
Description: as §1, §2

SMILES | fold reduction in MIC (MIC alone / MIC with PAFA)
CN(C)c1ccc(O)c2c1C[C@H]1C[C@H]3[C@H](N(C)C)C(O)=C(C(N)=O)C(=O)[C@@]3(O)C(O)=C1C2=O [MINO, minocycline] | 2

Same assay, conditions: Pseudomonas aeruginosa, PA263, 24 h, MIC of antibiotic, PA263, +PAFA10 (10 μM), 24 h

SMILES | MIC [µg/mL]
CN(C)c1ccc(O)c2c1C[C@H]1C[C@H]3[C@H](N(C)C)C(O)=C(C(N)=O)C(=O)[C@@]3(O)C(O)=C1C2=O [MINO, minocycline] | 4

Same assay, conditions: Pseudomonas aeruginosa, PA263, 24 h, MIC of antibiotic, PA263, +PAFA11 (10 μM), 24 h

SMILES | MIC [µg/mL]
CN(C)c1ccc(O)c2c1C[C@H]1C[C@H]3[C@H](N(C)C)C(O)=C(C(N)=O)C(=O)[C@@]3(O)C(O)=C1C2=O [MINO, minocycline] | 8

Same assay, conditions: Pseudomonas aeruginosa, PA263, 24 h, MIC of antibiotic, PA263, +PAFA14 (10 μM), 24 h

SMILES | MIC [µg/mL]
CN(C)c1ccc(O)c2c1C[C@H]1C[C@H]3[C@H](N(C)C)C(O)=C(C(N)=O)C(=O)[C@@]3(O)C(O)=C1C2=O [MINO, minocycline] | 2

Same assay, conditions: Pseudomonas aeruginosa, PA263, 24 h, PA263, Antibiotic alone, 24 h

SMILES | MIC [µg/mL]
CN(C)c1ccc(O)c2c1C[C@H]1C[C@H]3[C@H](N(C)C)C(O)=C(C(N)=O)C(=O)[C@@]3(O)C(O)=C1C2=O [MINO, minocycline] | 16
